According to patent publication US20250304537A1 (Repare Therapeutics Inc., priority 2022, published 2025):
Like-named read-outs stand apart in the source and are kept apart here.

Test system: PKMYT1 (CDK1 pThr14) in FUOV1 cells
Test: PKMYT1 cell-based activity assay, CDK1 pThr14 AlphaLISA in FUOV1 cells
Conditions: read-out: FUOV-1 CDK1 pThr14 IC50
Procedure, shortened: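 FUOV1 cells were treated with PKMYT1 inhibitor for 2 h at 37 °C, then lysed. CDK1 pThr14 was measured by AlphaLISA, pairing an anti-pThr14 antibody with an anti-total CDK1 antibody (5 nM each). Signal read at 680/615 nm and used to derive IC50.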

Row | Structure (SMILES) | IC50 (2 h, 2 h compound incubation) [nM] | further results
1 | Cc1ccc2[nH]ncc2c1-c1nc(-c2cccnc2N[C@H]2[C@@H]3COC[C@@H]32)nc(C(N)=O)c1N [Compound 545] | 43 | 
2 | Cc1cc(F)c2[nH]ncc2c1-c1nc(-c2cc(F)cnc2N[C@H]2CCOC2)nc(C(N)=O)c1N [Compound 869] |  | IC50 (2 h, 2 hours with compound): 55 nM
3 | COCCNc1ccc2oc3c(C(N)=O)c(N)c(-c4c(C)ccc5[nH]ncc45)cc3c2n1 [Compound 558, 7-amino-2-((2-methoxyethyl)amino)-8-(5-methyl-1H-indazol-4-yl)benzofuro[3,2-b]pyridine-6-carboxamide] | 95 | 
4 | [2H]C([2H])([2H])c1ccc2[nH]ncc2c1-c1nc(-c2ccc(C(F)F)nc2Nc2ncccc2F)nc(C(N)=O)c1N [Compound 959] |  | IC50 (2 h, 2 hours with compound): 8 nM
5 | Cc1ccc2[nH]ncc2c1-c1nc(-c2cc(F)cnc2N[C@@H]2CCOC2)nc(C(N)=O)c1N [Compound 685] | 12 | 
6 | Cc1ccc2[nH]ncc2c1-c1nc(-c2ccc(F)cc2Nc2ccnc(C(F)(F)F)c2)nc(C(N)=O)c1N [Compound 585] | 127 | 
7 | Cc1ccc2[nH]ncc2c1-c1nc(-c2cc(F)cnc2N[C@H]2CCOC[C@@H]2O)nc(C(N)=O)c1N [Compound 801] |  | IC50 (2 h, 2 hours with compound): > 10000 nM
8 | Cc1ccc2[nH]ncc2c1-c1nc(-c2cccnc2NC2CCN(C)C2=O)nc(C(N)=O)c1N (stereo not drawn) [Compound 561] | 426 | 
9 | Cc1ccc2[nH]ncc2c1-c1nc(-c2cccnc2NC2CCSCC2)nc(C(N)=O)c1N [Compound 597] | 49 | 
10 | Cc1ccc2[nH]ncc2c1-c1nc(-c2ccc(F)cc2Nc2ccncc2)nc(C(N)=O)c1N [Compound 533] | 3 | 
11 | NC(=O)c1nc(-c2cccnc2NC2CC2)nc(-c2c(Cl)ccc3[nH]ncc23)c1N [Compound 919] |  | IC50 (2 h, 2 hours with compound): 92 nM
12 | Cc1ccc2[nH]ncc2c1-c1nc(-c2cccnc2NC[C@H]2CCCOC2)nc(C(N)=O)c1N [Compound 667] | 42 | 
13 | Cc1ccc2[nH]ncc2c1-c1nc(-c2cccnc2Nc2nc(F)ccc2F)nc(C(N)=O)c1Cl [Compound 314, 5-chloro-2-[2-[(3,6-difluoro-2-pyridyl)amino]-3-pyridyl]-6-(5-methyl-1H-indazol-4-yl)pyrimidine-4-carboxamide] |  | IC50 (2 h, 2 h incubation): 1620 nM
14 | Cc1ccc2[nH]ncc2c1-c1nc(-c2ccc(F)cc2Nc2nccc(C(F)(F)F)n2)nc(C(N)=O)c1N [Compound 572] | 764 | 
15 | Cc1ccc2[nH]ncc2c1-c1nc(-c2cccnc2Nc2cccc(S(N)(=O)=O)c2)nc(C(N)=O)c1N [Compound 631] | 96 | 
16 | Cc1ccc2[nH]ncc2c1-c1nc(-c2cc(F)cnc2N[C@H]2CC[C@@H](O)CC2)nc(C(N)=O)c1N [Compound 828] |  | IC50 (2 h, 2 hours with compound): 30 nM
17 | Cc1cc(F)c2[nH]ncc2c1-c1nc(-c2ccc(F)nc2Nc2ncccc2F)nc(C(N)=O)c1N [Compound 864] |  | IC50 (2 h, 2 hours with compound): 9 nM
18 | CSc1nccc(Nc2cc(F)ccc2-c2nc(C(N)=O)c(N)c(-c3c(C)ccc4[nH]ncc34)n2)n1 [Compound 583] | 122 | 
19 | Cc1ccc2[nH]ncc2c1-c1nc(-c2ccc(F)cc2Nc2cc(C(C)(C)O)ccn2)nc(C(N)=O)c1N [Compound 633] | 998 | 
20 | Cc1ccc2[nH]ncc2c1-c1nc(-c2ccccc2-c2ccn[nH]2)nc(C(N)=O)c1N [Compound 816] |  | IC50 (2 h, 2 hours with compound): > 10000 nM
21 | Cc1ccc2[nH]ncc2c1-c1nc(-c2ccccc2Nc2ncc(F)cn2)nc(C(N)=O)c1N [Compound 494] | 144 | 
22 | Cc1cc(F)c2[nH]ncc2c1-c1nc(-c2ccc(F)nc2Nc2nc(F)ccc2F)nc(C(N)=O)c1N [Compound 879] |  | IC50 (2 h, 2 hours with compound): 7 nM

Row | Structure (SMILES) | IC50 (2 h, 2 h compound incubation) [nM] | further results
23 | Cc1ccc2[nH]ncc2c1-c1nc(-c2ccncc2Nc2ncccn2)nc(C(N)=O)c1N [Compound 951] |  | IC50 (2 h, 2 hours with compound): 16 nM
24 | Cc1ccc2[nH]ncc2c1-c1nc(-c2ccc(F)cc2Nc2cccc(C#N)c2)nc(C(N)=O)c1N [Compound 580, 5-amino-2-(2-((3-cyanophenyl)amino)-4-fluorophenyl)-6-(5-methyl-1H-indazol-4-yl)pyrimidine-4-carboxamide] | 44 | 
25 | Cc1ccc2[nH]ncc2c1-c1nc(-c2cccnc2NC2(C)CCOC2)nc(C(N)=O)c1N (stereo not drawn) [Compound 591] | 22 | 
26 | Cc1ccc2[nH]ncc2c1-c1nc(-c2ccc(F)cc2Nc2ncccc2F)nc(C(N)=O)c1N [Compound 527] | 11 | 
27 | Cc1ccc2[nH]ncc2c1-c1nc(-c2cccnc2Nc2ccncc2)nc(C(N)=O)c1N [Compound 562] | 24 | 
28 | Cc1ccc2[nH]ncc2c1-c1nc(-c2cc(F)cnc2NCC(F)F)nc(C(N)=O)c1N [Compound 504] | 31 | 
29 | Cc1ccc2[nH]ncc2c1-c1nc(-c2cc(F)cnc2N[C@H]2C[C@H]3CC[C@@H]2O3)nc(C(N)=O)c1N [Compound 891] |  | IC50 (2 h, 2 hours with compound): 22 nM
30 | COc1ccccc1Nc1ncccc1-c1nc(C(N)=O)c(N)c(-c2c(C)ccc3[nH]ncc23)n1 [Compound 632] | 601 | 
31 | Cc1ccnnc1Nc1cc(F)ccc1-c1nc(C(N)=O)c(N)c(-c2c(C)ccc3[nH]ncc23)n1 [Compound 540] | 9 | 
32 | NC(=O)c1nc(-c2cc(F)ccc2Nc2ncc(F)cn2)nc(-c2c(Cl)ccc3[nH]ncc23)c1N [Compound 554] | 138 | 
33 | Cc1ccc2[nH]ncc2c1-c1nc(-c2cc(F)cnc2NC2CC(F)(F)C2)nc(C(N)=O)c1N [Compound 678] | 31 | 
34 | Cc1ccc2[nH]ncc2c1-c1nc(-c2cc(F)ccc2Nc2cnccn2)nc(C(N)=O)c1N [Compound 490] | 51 | 
35 | Cc1ccc2[nH]ncc2c1-c1nc(-c2cccnc2Nc2cccnc2)nc(C(N)=O)c1N [Compound 768] |  | IC50 (2 h compound incubation): 122 nM
36 | Cc1ccc(-c2nc(C(N)=O)c(N)c(-c3c(C)ccc4[nH]ncc34)n2)c(Nc2nnccc2C)n1 [Compound 628] | 41 | 
37 | Cc1ccc2[nH]ncc2c1-c1nc(-c2ccc(F)cc2Nc2cncc(F)c2)nc(C(N)=O)c1N [Compound 665] | 41 | 
38 | Cc1ccc2[nH]ncc2c1-c1nc(-c2cccnc2NCC(C)(C)O)nc(C(N)=O)c1N [Compound 682] | 83 | 
39 | Cc1ccc2[nH]ncc2c1-c1nc(-c2ccc(F)cc2Nc2ccnnc2)nc(C(N)=O)c1N [Compound 553] | 183 | 
40 | COc1cc(-c2nc(C(N)=O)c(N)c(-c3c(C)ccc4[nH]ncc34)n2)c(Nc2ncccc2F)cn1 [Compound 976, 5-amino-2-(5-((3-fluoropyridin-2-yl)amino)-2-methoxypyridin-4-yl)-6-(5-methyl-1H-indazol-4-yl)pyrimidine-4-carboxamide] |  | IC50 (2 h, 2 hours with compound): 22 nM
41 | NC(=O)c1nc(-c2cccnc2NC2CC2)nc(-c2c(F)ccc3[nH]ncc23)c1N [Compound 933] |  | IC50 (2 h, 2 hours with compound): 65 nM
42 | COCC(COC)Nc1cc(F)c(F)cc1-c1nc(C(N)=O)c(N)c(-c2c(C)ccc3[nH]ncc23)n1 [Compound 508] | 622 | 
43 | Cc1c(F)cc2[nH]ncc2c1-c1nc(-c2ccc(F)cc2Nc2ncccc2C#N)nc(C(N)=O)c1N [Compound 865] |  | IC50 (2 h, 2 hours with compound): 10 nM

Continued, in another order:

Row | IC50 (2 h, 2 h compound incubation) [nM] | Structure (SMILES) | further results
44 | 199 | Cc1ccc2[nH]ncc2c1-c1nc(-c2cc(F)cnc2N[C@H]2CC[C@H](C(C)(C)O)CC2)nc(C(N)=O)c1N [Compound 757] | 
45 | 195 | Cc1ccc2[nH]ncc2c1-c1nc(-c2cc(F)cnc2NCC2(O)CC2)nc(C(N)=O)c1N [Compound 692] | 
46 | 120 | Cc1ccc2[nH]ncc2c1-c1nc(-c2cccnc2Nc2ncccn2)nc(C(N)=O)c1N [Compound 726] | 
47 | 13 | Cc1ccc(Cl)c(Nc2ncccc2-c2nc(C(N)=O)c(N)c(-c3c(C)ccc4[nH]ncc34)n2)n1 [Compound 716] | 
48 | 2 | Cc1ccc2[nH]ncc2c1-c1nc(-c2cccnc2Nc2nc(F)ccc2Cl)nc(C(N)=O)c1N [Compound 752] | 
49 | 103 | Cc1ccc2[nH]ncc2c1-c1nc(-c2cc(F)c(C#N)cc2NC(C)C(F)(F)F)nc(C(N)=O)c1N (stereo not drawn) [Compound 755] | 
50 | 43 | Cc1ccc2[nH]ncc2c1-c1nc(-c2cc(C#N)ccc2Nc2ncccn2)nc(C(N)=O)c1N [Compound 789] | 
51 | 19 | Cc1ccc2[nH]ncc2c1-c1nc(-c2cc(F)cnc2N[C@@H](C)C2CC2)nc(C(N)=O)c1N [Compound 710] | 
52 | 2 | Cc1ccc(F)c(Nc2ncccc2-c2nc(C(N)=O)c(N)c(-c3c(C)ccc4[nH]ncc34)n2)n1 [Compound 697] | 
53 | 73 | Cc1cnc(C)c(Nc2cc(C#N)ccc2-c2nc(C(N)=O)c(N)c(-c3c(C)ccc4[nH]ncc34)n2)n1 [Compound 750] | 
54 | 1130 | Cc1ccnc(Nc2c(F)cccc2-c2nc(C(N)=O)c(N)c(-c3c(C)ccc4[nH]ncc34)n2)n1 [Compound 776, 5-amino-2-(3-fluoro-2-((4-methylpyrimidin-2-yl)amino)phenyl)-6-(5-methyl-1H-indazol-4-yl)pyrimidine-4-carboxamide] | 
55 | 1260 | CCc1ccccc1-c1nc(C(N)=O)c(N)c(-c2c(C)ccc3[nH]ncc23)n1 [Compound 778] | 
56 | 3 | Cc1ccc2[nH]ncc2c1-c1nc(-c2cccnc2Nc2nc(C#N)ccc2Cl)nc(C(N)=O)c1N [Compound 743] | 
57 | 11 | Cc1ccc2[nH]ncc2c1-c1nc(-c2ccc(C#N)nc2Nc2ncccc2F)nc(C(N)=O)c1N [Compound 746] | 
